# Measured values from patent US8338480B2, “Combination treatment of metabolic disorders” (Wellstat Therapeutics Corporation, priority 2006, dated 2012).
# Where a name gives a salt, the structure may show the parent alone.
# Assays:
# Type in all cases: in vivo
# [1] = test system: Male C57B1/6 mice; assay: Food intake and body weight of male C57Bl/6 mice under restricted feeding (Example 3); details: for Post-treatment Food Intake (5 Hour): 5 hour meal; for food intake (in words): restricted feeding paradigm; for Change in Body weight % / Change in Body weight (grams ± SEM) / Post-treatment Body weight: restricted feeding
# Method: Animals. […] Food was withheld for the remainder of each day. Because of the restricted feeding time, the mice eat less than under ad libitum food availability. Therefore, reduction of food intake in this model requires a drug effect sufficient to overcome the hunger stimulus provided by subnormal daily food intake. Drug Administration. Groups of 10 mice each (individually weighed and marked, divided into 5/cage and trained and monitored as above; were dosed once per day with Compound BI (100 mg/kg), rosiglitazone (3 mg/kg), both drugs, or vehicle by oral gavage at 8 AM for four consecutive days. Comparator groups receiving appetite modulators not suitable for oral dosing (PYY and cerulenin) received intraperitoneal injections at 8 AM for four consecutive days. […] [table]
# [2] = test system: db/db mice; assay: Serum glucose in db/db mice after two weeks (Example 4); details: compound alone 100 mg/kg
# Method: (§1) • 8. Vehicle (1% hydroxypropylmethylcellulose) • 9. Compound BI 100 mg/kg • 10. Rosiglitazone (RSG) 3 mg/kg • 11. Compound BI 100 mg/kg+RSG 3 mg/kg • 12. Compound CF 100 mg/kg • 13. Compound CF 100 mg/kg+RSG 3 mg/kg • 14. Compound CT 100 mg/kg+RSG 3 mg/kg • 15. […]
# (§2) After two weeks, blood samples were collected from the retro-orbital sinus and processed for serum chemistry measurements.
# [3] = test system: Adiponectin; assay: Serum adiponectin in db/db mice after two weeks (Example 4); details: for Adiponectin ± SD: db/db mice serum, compound alone 100 mg/kg; for effect on adiponectin with concurrent rosiglitazone (in words) / serum adiponectin, individual agents (in words): db/db mice; for effect on adiponectin with concurrent rosiglitazone (in words): 100 mg/kg + RSG 3 mg/kg; for serum adiponectin, individual agents (in words): agent alone
# Text: Adiponectin is an glycoprotein secreted from white adipose tissue. Adiponectin improves insulin sensitive in other tissues, e.g. muscle and liver, and is also protective against atherosclerosis. Thiazolidinedione antidiabetic agents such as rosiglitazone or pioglitazone act largely via action at the PPAR-gamma, a nuclear receptor involved in regulation of fuel metabolism. PPAR-gamma agonists enhance adiponectin production by adipose tissue, and this may contribute to their beneficial effects in diabetes and related metabolic disorders.
# as §1, §2
# [4] = test system: db/db mice; assay: Serum glucose in db/db mice, combinations with rosiglitazone or pioglitazone, 4 weeks (Example 5); details: 4 weeks oral once per day
# Method: Male db/db mice have a defect in the receptor for the appetite-regulating protein leptin and consequently develop hyperphagia, obesity, insulin resistance, hyperglycemia, hypertriglyceridemia. Male db/db mice are an accepted animal model for Type II diabetes. The effect of a range of single daily doses of orally administered Compound BI was assessed in this model, and the efficacy of rosiglitazone alone and in combination with Compound BI was also examined.
# Male C57BL/Ksola db/db mice (“db/db mice”) were obtained from Harlan (Indianapolis, Ind.) and allowed to acclimate for a minimum of one week.
# Body weights and blood glucose levels were measured and animals were sorted groups of 6-7 mice with equivalent mean body weights in each group. […].
# • 12. Vehicle • 13. Compound BI 100 mg/kg/day • 14. Rosiglitazone 3 mg/kg • 15. Rosiglitazone 3 mg/kg+Compound BI 100 mg/kg • 16. Pioglitazone 30 mg/kg • 17. Pioglitazone 30 mg/kg+Compound BI 100 mg/kg • 18. Pioglitazone 100 mg/kg • 19. Pioglitazone 100 mg/kg+Compound BI 100 mg/kg
# Drug preparation: Compound BI was suspended in a vehicle comprising 1% aqueous hydroxypropylmethylcellulose, using a tissue homogenizer to minimize particle size and maximize uniformity of the suspension. Pioglitazone and rosiglitazone were suspended in the same vehicle after pulverization of commercial tablets of each of these drugs. Drug concentrations in the dosing suspension for each treatment group were adjusted according to body weights so that a constant volume of 0.4 ml provided appropropriate drug doses in all groups.
# Drug Administration: Drugs were administered orally by gavage once per day for 28 days.
# Blood sampling: For serum chemistry analysis, nonfasting blood samples (200 microliters) were obtained via the retro-orbital sinus and collected in serum separator tubes at 11 AM on day 28 after initiation of drug administration.
# [5] = Cerulenin 30 mg/kg i.p. once per day
# [6] = PYY 100 mg/kg i.p. once per day
molecule,measurement,setting,value
C/C=C/C/C=C/CCC(=O)[C@H]1O[C@H]1C(N)=O [Cerulenin],Post-treatment Food Intake (5 Hour),[1]; [5],2.45 ± 0.10 grams
same,food intake (in words),[1],failed to have an effect
same,Change in Body weight %,[1]; [5],+0.81 ± 0.49%
same,Change in Body weight (grams ± SEM),[1]; [5],+0.16 ± 0.10 grams
same,Post-treatment Body weight,[1]; [5],21.18 ± 0.66 grams
"Cc1cccc(C)c1COc1cccc(CC(=O)O)c1 [Compound CF, 3-(2,6-Dimethylbenzyloxy)phenylacetic acid]",Glucose ± SD,[2],305 ± 75 mg/dL
same,Adiponectin ± SD,[3],6.5 ± 2.0 micrograms/ml
same,effect on adiponectin with concurrent rosiglitazone (in words),[3],strongly amplify the effect of concurrent rosiglitazone on adiponectin
same,"serum adiponectin, individual agents (in words)",[3],did not elevate serum adiponectin levels
"Cc1cccc(C)c1COc1cccc(CC(=O)NO)c1 [Compound CT, N-Hydroxy-2-[3-(2,6-dimethylbenzyloxy)phenyl]acetamide]",Glucose ± SD,[2],235 ± 107 mg/dL
same,Adiponectin ± SD,[3],5.4 ± 1.5 micrograms/ml
same,effect on adiponectin with concurrent rosiglitazone (in words),[3],strongly amplify the effect of concurrent rosiglitazone on adiponectin
same,"serum adiponectin, individual agents (in words)",[3],did not elevate serum adiponectin levels
"CCc1ccc(CCOc2ccc(CC3SC(=O)NC3=O)cc2)nc1 (centres unmarked) [PIO, pioglitazone hydrochloride]",Serum Glucose (mg/dL) Mean ± SD,[4]; PIO 30 mg/kg,550 ± 74 mg/dL
same,Serum Glucose (mg/dL) Mean ± SD,[4]; PIO 100 mg/kg,597 ± 228 mg/dL
Peptide YY fragment 3-36 human [PYY],Post-treatment Food Intake (5 Hour),[1]; [6],2.28 ± 0.25 grams
same,food intake (in words),[1],failed to have an effect
same,Change in Body weight %,[1]; [6],−0.96 ± 0.50%
same,Change in Body weight (grams ± SEM),[1]; [6],−0.20 ± 0.10 grams
same,Post-treatment Body weight,[1]; [6],20.86 ± 0.33 grams
